System: 648629-189-R-J1-PDC spheroids with HUVEC/MSC, viability
Assay: Anticancer human tumor 648629-189-R-J1-PDC patient-derived bladder carcinoma cell line growth inhibition [PI3K]
Conditions: for viability, T/C: stronger effect = lower value
Method in brief: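 Multi-cell spheroids combine tumor cells with HUVEC and human MSCs, treated with targeted agents alone or with inavolisib, alpelisib, duvelisib or copanlisib. Concentrations fall in half-log steps from at or near clinical Cmax, or from 10 microM where Cmax is unknown; viability read-out.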

[1] = curve of first compound, second compound 0.00316 µM
[2] = curve of first compound, second compound 0.01 µM
[3] = curve of first compound, second compound 0.0316 µM
[4] = curve of first compound, second compound 0.1 µM
[5] = curve of first compound, second compound 0.316 µM
[6] = curve of first compound, second compound 1 µM
[7] = second compound 0.00316 µM, first compound 0.0316 µM
[8] = second compound 0.00316 µM, first compound 0.1 µM
[9] = second compound 0.00316 µM, first compound 0.316 µM
[10] = second compound 0.00316 µM, first compound 1 µM
[11] = second compound 0.00316 µM, first compound 3.16 µM
[12] = second compound 0.00316 µM, first compound 10 µM
[13] = second compound 0.01 µM, first compound 0.0316 µM
[14] = second compound 0.01 µM, first compound 0.1 µM
[15] = second compound 0.01 µM, first compound 0.316 µM
[16] = second compound 0.01 µM, first compound 1 µM
[17] = second compound 0.01 µM, first compound 3.16 µM
[18] = second compound 0.01 µM, first compound 10 µM
[19] = second compound 0.0316 µM, first compound 0.0316 µM
[20] = second compound 0.0316 µM, first compound 0.1 µM
[21] = second compound 0.0316 µM, first compound 0.316 µM
[22] = second compound 0.0316 µM, first compound 1 µM
[23] = second compound 0.0316 µM, first compound 3.16 µM
[24] = second compound 0.0316 µM, first compound 10 µM
[25] = second compound 0.1 µM, first compound 0.0316 µM
[26] = second compound 0.1 µM, first compound 0.1 µM
[27] = second compound 0.1 µM, first compound 0.316 µM
[28] = second compound 0.1 µM, first compound 1 µM
[29] = second compound 0.1 µM, first compound 3.16 µM
[30] = second compound 0.1 µM, first compound 10 µM
[31] = second compound 0.316 µM, first compound 0.0316 µM
[32] = second compound 0.316 µM, first compound 0.1 µM
[33] = second compound 0.316 µM, first compound 0.316 µM
[34] = second compound 0.316 µM, first compound 1 µM
[35] = second compound 0.316 µM, first compound 3.16 µM
[36] = second compound 0.316 µM, first compound 10 µM
[37] = second compound 1 µM, first compound 0.0316 µM
[38] = second compound 1 µM, first compound 0.1 µM
[39] = second compound 1 µM, first compound 0.316 µM
[40] = second compound 1 µM, first compound 1 µM
[41] = second compound 1 µM, first compound 3.16 µM
[42] = second compound 1 µM, first compound 10 µM
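Note: spheroids exposed to agents for seven days before reading.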
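Throughout, for viability, T/C: percent of vehicle control luminescence where 100% = DMSO treated spheroids.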

## C[C@@H](NC(=O)c1ncnc(N)c1Cl)c1ncc(C(=O)Nc2cc(C(F)(F)F)c(Cl)cn2)s1 + CC(Nc1ccc2c(c1)OCCn1cc(N3C(=O)OCC3C(F)F)nc1-2)C(N)=O
[1]
  IC50: > 10 µM
[2]
  IC50: > 10 µM
[3]
  IC50: > 10 µM
[4]
  IC50: > 10 µM
[5]
  IC50: > 10 µM
[6]
  IC50: > 10 µM
[7]
  viability, T/C: 106%
[8]
  viability, T/C: 99.1%
[9]
  viability, T/C: 112%
[10]
  viability, T/C: 115%
[11]
  viability, T/C: 108%
[12]
  viability, T/C: 116%
[13]
  viability, T/C: 111%
[14]
  viability, T/C: 98.8%
[15]
  viability, T/C: 115%
[16]
  viability, T/C: 99.3%
[17]
  viability, T/C: 112%
[18]
  viability, T/C: 101%
[19]
  viability, T/C: 109%
[20]
  viability, T/C: 105%
[21]
  viability, T/C: 97.4%
[22]
  viability, T/C: 102%
[23]
  viability, T/C: 106%
[24]
  viability, T/C: 106%
[25]
  viability, T/C: 103%
[26]
  viability, T/C: 97.8%
[27]
  viability, T/C: 105%
[28]
  viability, T/C: 110%
[29]
  viability, T/C: 98.3%
[30]
  viability, T/C: 97.8%
[31]
  viability, T/C: 94.8%
[32]
  viability, T/C: 93.9%
[33]
  viability, T/C: 83.7%
[34]
  viability, T/C: 86.2%
[35]
  viability, T/C: 96.2%
[36]
  viability, T/C: 86.4%
[37]
  viability, T/C: 76.2%
[38]
  viability, T/C: 74.2%
[39]
  viability, T/C: 69.3%
[40]
  viability, T/C: 77.2%
[41]
  viability, T/C: 78%
[42]
  viability, T/C: 65.5%

## COc1c(OCCCN2CCOCC2)ccc2c3n(c(=NC(=O)c4cnc(N)nc4)nc12)CCN3
Compound 0.00316 µM
  viability, T/C: 108% [middle of 8 runs]
Compound 0.01 µM
  viability, T/C: 103% [middle of 8 runs]
Compound 0.0316 µM
  viability, T/C: 97.5% [middle of 8 runs]
Compound 0.1 µM
  viability, T/C: 64.5% [middle of 8 runs]
Compound 0.316 µM
  viability, T/C: 18.6% [middle of 8 runs]
Compound 1 µM
  viability, T/C: 3.42% [middle of 8 runs]
Compound alone, run of 04/25/2023
  IC50: 144 nM [middle of 7 runs]

## C[C@@H](NC(=O)c1ncnc(N)c1Cl)c1ncc(C(=O)Nc2cc(C(F)(F)F)c(Cl)cn2)s1 + COc1c(OCCCN2CCOCC2)ccc2c3n(c(=NC(=O)c4cnc(N)nc4)nc12)CCN3
[1]
  IC50: > 10 µM
[2]
  IC50: > 10 µM
[3]
  IC50: > 10 µM
[4]
  IC50: > 10 µM
[5]
  IC50: < 0.0316 µM
[6]
  IC50: < 0.0316 µM
[7]
  viability, T/C: 105%
[8]
  viability, T/C: 106%
[9]
  viability, T/C: 103%
[10]
  viability, T/C: 107%
[11]
  viability, T/C: 112%
[12]
  viability, T/C: 116%
[13]
  viability, T/C: 99.9%
[14]
  viability, T/C: 111%
[15]
  viability, T/C: 90.4%
[16]
  viability, T/C: 101%
[17]
  viability, T/C: 128%
[18]
  viability, T/C: 113%
[19]
  viability, T/C: 95.8%
[20]
  viability, T/C: 93.8%
[21]
  viability, T/C: 109%
[22]
  viability, T/C: 94.9%
[23]
  viability, T/C: 104%
[24]
  viability, T/C: 90%
[25]
  viability, T/C: 66.6%
[26]
  viability, T/C: 70.3%
[27]
  viability, T/C: 60.8%
[28]
  viability, T/C: 65.2%
[29]
  viability, T/C: 67.3%
[30]
  viability, T/C: 68.9%
[31]
  viability, T/C: 23.6%
[32]
  viability, T/C: 21.7%
[33]
  viability, T/C: 19.4%
[34]
  viability, T/C: 27.9%
[35]
  viability, T/C: 26.4%
[36]
  viability, T/C: 25.8%
[37]
  viability, T/C: 4.31%
[38]
  viability, T/C: 4.06%
[39]
  viability, T/C: 3.53%
[40]
  viability, T/C: 4.37%
[41]
  viability, T/C: 4.83%
[42]
  viability, T/C: 6.55%

## CC(Cn1ccc(-c2ccc(C#N)c(Cl)c2)n1)NC(=O)c1cc(C(C)O)[nH]n1 (stereo not drawn)
Compound 0.0316 µM
  viability, T/C: 108% [middle of 4 runs]
Compound 0.1 µM
  viability, T/C: 94.8% [middle of 4 runs]
Compound 0.316 µM
  viability, T/C: 105% [middle of 4 runs]
Compound 1 µM
  viability, T/C: 104% [middle of 4 runs]
Compound 3.16 µM
  viability, T/C: 88.8% [middle of 4 runs]
Compound 10 µM
  viability, T/C: 81.1% [middle of 4 runs]
Curve of compound
  IC50: > 10 µM

Reference: PubChem BioAssay AID1963974 (Molecular Pharmacology Branch, DTP, NCI, 2024)
